Reference: US20070156046A1, “Method of enriching hyperpolarized atom nuclei and an apparatus for implementing the method” (priority 2004, published 2007)

Key:
[1] = solubility (Ostwald coefficient) of ^129Xe in toluol and ethanol depending on the temperature of the solvent; type: physicochemical; conditions: for increase of the density compared to the gas phase: 180° K; for density of ^129Xe compared with the gas phase: about 240° K
Experimental: Solubility is defined as the density of the hyperpolarized gas in the solvent relative to the density of the hyperpolarized gas in the gas chamber situated above a given temperature and pressure. The solubility is also referred to as the Ostwald coefficient.
An even higher solubility of ^129Xe in the solvent is obtained by cooling to temperatures of 180° K, thereby obtaining a 100-fold increase of the density in both toluol and ethanol compared to the gas phase. Further cooling by just a few degrees Kelvin already results in an increase of the Ostwald coefficient to a value of 200 (FIG. 2).

[2] = ^129Xe densities in the solvent in the two-stage enrichment apparatus; type: physicochemical; conditions: solvent toluol/ethanol
Experimental: A gas mixture 1 with hyperpolarized atomic nuclei flows from a polarizer (not shown) into a first chamber 2 containing a cooled solvent. Chamber 2 has means for cooling the solvent. The solvent containing the gas mixture is thereby cooled to-a temperature T1, of, e.g. 180° K.
The gas components are enriched in chamber 2 according to their solubility in the solvent, and thus separated from one another. The unnecessary components of the mixture are released through valve 3. The solvent enriched with the hyperpolarized atomic nuclei is guided through a connection line out of chamber 2 into a further chamber 5. Chamber 5 comprises means for degassing, such as an apparatus for producing ultrasound and/or heating.
Chamber 5 thus represents a degassing chamber 5 for the hyperpolarized atomic nuclei from the solvent. In chamber 5, a gas pressure of the originally dissolved gas arises due to the degassing of the hyperpolarized atomic nuclei via the solvent. The gas pressure is determined by the partial pressure of the hyperpolarized atomic nuclei (gas component) in solvent chamber 2, and the ratio of the solubilities of this gas component in the solvent at temperatures T1 in chamber 2 and T2 in chamber 5.
Following degassing in chamber 5, the solution and degassing process may be repeated, as represented in FIG. 2 by continuous lines. For this, starting from chamber 5 at the end of the first enrichment stage, the gas with the hyperpolarized atomic nuclei is guided into chamber 6, where it is cooled to the temperature T1. Following enrichment in the solvent, the gas is conducted into chamber 8 with a temperature of T2 for degassing. Chamber 8, again, has a sufficient volume.
The following ^129Xe densities in the solvent (toluol/ethanol) may be set at different temperatures: […]

With [Xe] [^129Xe, xenon] the “increase of the density compared to the gas phase” value ([1]; in ethanol) was 100 fold, the “density of ^129Xe compared with the gas phase” value ([1]; in ethanol) was “ten times higher” and the “increase of the density compared to the gas phase” value ([1]; in toluol) was 100 fold. For the same compound, the “density of ^129Xe compared with the gas phase” value ([1]; in toluol) was “ten times higher”, the Ostwald coefficient ([1]; solvent ethanol, standard conditions (293° K, 1 bar)) was “about 2.5” and the Ostwald coefficient ([1]; solvent toluol, standard conditions (293° K, 1 bar)) was “about 5”. For the same compound, the “solubility or Ostwald coefficient compared to at room temperature” value ([1]; temperature of 273° K, toluol and ethanol (FIG. 1)) was “clear increase”, the Ostwald coefficient ([1]; toluol and ethanol, further cooling by a few degrees Kelvin below 180° K) was 200 and the “pXe, Sol, Stage 1 (Chamber 2)” value ([2]; T = 180°K) was “pXe, Sol −7.0 bar”. The “pXe, Sol, Stage 2 (Chamber 6)” value ([2]; T = 180°K) was “˜20 bar”, the “pXe, Sol, Stage 1 (Chamber 2)” value ([2]; T = 200°K) was “pXe, Sol −2.1 bar” and the “pXe, Sol, Stage 2 (Chamber 6)” value ([2]; T = 200°K) was “˜10 bar”. For the same compound, the “pXe, Sol, Stage 1 (Chamber 2)” value ([2]; T = 240°K) was “pXe, Sol −0.7 bar” and the “pXe, Sol, Stage 2 (Chamber 6)” value ([2]; T = 240°K) was “˜3.5 bar”.
